This passage reports residual kinase activity results from article PMC11167047 (Cell Death Discovery, 2024).

What all share (test): kinome screen (33PanQinase)
Common to all, as to assay type: biochemical

In one experiment the target is T1, AuroraC (Homo sapiens, UniProt Q9UQB9).
T1 construct: purchased Reaction Biology Europe GmbH (formerly ProQinase)
T1 sequence (Q9UQB9 1-309): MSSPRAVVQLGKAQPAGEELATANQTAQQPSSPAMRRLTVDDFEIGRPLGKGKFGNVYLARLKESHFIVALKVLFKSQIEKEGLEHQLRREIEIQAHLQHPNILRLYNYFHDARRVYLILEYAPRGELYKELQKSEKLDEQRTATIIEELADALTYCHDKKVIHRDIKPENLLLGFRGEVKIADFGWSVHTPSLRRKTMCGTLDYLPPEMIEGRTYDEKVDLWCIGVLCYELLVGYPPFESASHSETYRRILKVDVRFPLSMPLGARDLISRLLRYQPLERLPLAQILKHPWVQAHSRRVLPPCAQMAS
How it is done: (§1) The Kinome Screening was performed by Reaction Biology Europe GmbH (http://reactionbiology.com; Freiburg i. Br., Germany).

In another experiment the target is T2, CDC42BPA (Homo sapiens, UniProt Q5VT25).
T2 construct: purchased Reaction Biology Europe GmbH (formerly ProQinase)
How it is done: as §1

The target in another experiment is T3, CDK1/CycE1 (Homo sapiens, UniProt P06493).
T3 construct: purchased Reaction Biology Europe GmbH (formerly ProQinase)
How it is done:
as §1

The target in the next experiment is T4, CDK12/CycK (Homo sapiens, UniProt Q9NYV4).
T4 construct: purchased Reaction Biology Europe GmbH (formerly ProQinase)
How it is done: as §1

Another experiment has as its target T5, DDR2 (Homo sapiens, UniProt Q16832).
T5 construct: purchased Reaction Biology Europe GmbH (formerly ProQinase)
T5 sequence (Q16832 22-855): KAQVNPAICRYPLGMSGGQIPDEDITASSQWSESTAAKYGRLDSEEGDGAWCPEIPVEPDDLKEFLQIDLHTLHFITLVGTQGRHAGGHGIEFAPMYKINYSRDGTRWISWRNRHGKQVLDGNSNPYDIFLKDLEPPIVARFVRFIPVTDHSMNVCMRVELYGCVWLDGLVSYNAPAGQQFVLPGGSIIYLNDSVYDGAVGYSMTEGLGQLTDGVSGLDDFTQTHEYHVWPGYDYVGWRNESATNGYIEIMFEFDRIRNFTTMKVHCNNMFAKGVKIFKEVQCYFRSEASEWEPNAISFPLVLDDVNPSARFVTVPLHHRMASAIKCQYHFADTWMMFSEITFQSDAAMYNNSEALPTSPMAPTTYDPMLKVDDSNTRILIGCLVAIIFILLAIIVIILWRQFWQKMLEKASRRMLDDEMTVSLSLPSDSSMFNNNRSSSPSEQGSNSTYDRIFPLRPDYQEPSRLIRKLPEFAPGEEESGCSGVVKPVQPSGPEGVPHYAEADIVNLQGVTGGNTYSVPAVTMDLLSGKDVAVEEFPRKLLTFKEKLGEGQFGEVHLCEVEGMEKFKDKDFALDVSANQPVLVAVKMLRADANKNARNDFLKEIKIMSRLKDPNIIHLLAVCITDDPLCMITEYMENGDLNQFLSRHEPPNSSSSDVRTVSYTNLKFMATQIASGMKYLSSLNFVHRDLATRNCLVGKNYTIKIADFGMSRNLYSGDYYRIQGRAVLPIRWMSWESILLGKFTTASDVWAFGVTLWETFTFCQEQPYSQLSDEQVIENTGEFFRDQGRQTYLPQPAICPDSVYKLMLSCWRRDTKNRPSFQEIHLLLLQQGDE
How it is done: as §1

In a further experiment the target is T6, EPHB1 (Homo sapiens, UniProt P54762).
T6 construct: purchased Reaction Biology Europe GmbH (formerly ProQinase)
T6 sequence (P54762 18-984): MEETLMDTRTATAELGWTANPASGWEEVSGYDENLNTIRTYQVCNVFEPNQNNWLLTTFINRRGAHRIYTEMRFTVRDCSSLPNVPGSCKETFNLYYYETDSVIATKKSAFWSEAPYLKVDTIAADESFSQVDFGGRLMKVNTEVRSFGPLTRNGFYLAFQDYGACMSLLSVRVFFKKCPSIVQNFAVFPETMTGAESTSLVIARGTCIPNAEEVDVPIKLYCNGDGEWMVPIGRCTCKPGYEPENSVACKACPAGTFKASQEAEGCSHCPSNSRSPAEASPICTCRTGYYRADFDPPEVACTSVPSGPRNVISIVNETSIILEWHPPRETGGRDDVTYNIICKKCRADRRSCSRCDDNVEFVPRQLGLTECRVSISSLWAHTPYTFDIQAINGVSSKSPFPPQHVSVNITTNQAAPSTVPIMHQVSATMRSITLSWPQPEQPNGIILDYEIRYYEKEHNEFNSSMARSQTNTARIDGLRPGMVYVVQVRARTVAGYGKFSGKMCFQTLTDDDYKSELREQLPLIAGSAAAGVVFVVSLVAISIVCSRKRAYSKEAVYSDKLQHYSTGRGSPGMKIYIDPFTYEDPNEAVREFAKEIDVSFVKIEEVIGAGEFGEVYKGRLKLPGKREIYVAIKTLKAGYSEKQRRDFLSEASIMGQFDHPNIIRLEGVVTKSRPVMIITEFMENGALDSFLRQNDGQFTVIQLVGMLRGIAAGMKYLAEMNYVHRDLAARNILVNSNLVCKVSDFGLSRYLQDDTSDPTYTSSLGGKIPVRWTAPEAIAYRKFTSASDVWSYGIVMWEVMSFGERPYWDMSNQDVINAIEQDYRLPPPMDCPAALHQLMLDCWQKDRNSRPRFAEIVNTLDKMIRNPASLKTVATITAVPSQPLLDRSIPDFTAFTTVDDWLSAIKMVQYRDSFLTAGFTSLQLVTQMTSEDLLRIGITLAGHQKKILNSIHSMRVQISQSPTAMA
How it is done:
as §1

The target in the next experiment is T7, NEK6 (Homo sapiens, UniProt Q9HC98).
T7 construct: purchased Reaction Biology Europe GmbH (formerly ProQinase)
How it is done:
as §1

Another experiment has as its target T8, PIM3 (Homo sapiens, UniProt Q86V86).
T8 construct: purchased Reaction Biology Europe GmbH (formerly ProQinase)
How it is done: as §1

For a further experiment, the target named is T9, S6Kbeta (Homo sapiens, UniProt Q9UBS0).
T9 construct: purchased Reaction Biology Europe GmbH (formerly ProQinase)
How it is done: as §1

In another experiment the target is T10, TTBK2 (Homo sapiens, UniProt Q6IQ55).
T10 construct: purchased Reaction Biology Europe GmbH (formerly ProQinase)
How it is done: as §1

T2 sequence (Q5VT25 whole entry): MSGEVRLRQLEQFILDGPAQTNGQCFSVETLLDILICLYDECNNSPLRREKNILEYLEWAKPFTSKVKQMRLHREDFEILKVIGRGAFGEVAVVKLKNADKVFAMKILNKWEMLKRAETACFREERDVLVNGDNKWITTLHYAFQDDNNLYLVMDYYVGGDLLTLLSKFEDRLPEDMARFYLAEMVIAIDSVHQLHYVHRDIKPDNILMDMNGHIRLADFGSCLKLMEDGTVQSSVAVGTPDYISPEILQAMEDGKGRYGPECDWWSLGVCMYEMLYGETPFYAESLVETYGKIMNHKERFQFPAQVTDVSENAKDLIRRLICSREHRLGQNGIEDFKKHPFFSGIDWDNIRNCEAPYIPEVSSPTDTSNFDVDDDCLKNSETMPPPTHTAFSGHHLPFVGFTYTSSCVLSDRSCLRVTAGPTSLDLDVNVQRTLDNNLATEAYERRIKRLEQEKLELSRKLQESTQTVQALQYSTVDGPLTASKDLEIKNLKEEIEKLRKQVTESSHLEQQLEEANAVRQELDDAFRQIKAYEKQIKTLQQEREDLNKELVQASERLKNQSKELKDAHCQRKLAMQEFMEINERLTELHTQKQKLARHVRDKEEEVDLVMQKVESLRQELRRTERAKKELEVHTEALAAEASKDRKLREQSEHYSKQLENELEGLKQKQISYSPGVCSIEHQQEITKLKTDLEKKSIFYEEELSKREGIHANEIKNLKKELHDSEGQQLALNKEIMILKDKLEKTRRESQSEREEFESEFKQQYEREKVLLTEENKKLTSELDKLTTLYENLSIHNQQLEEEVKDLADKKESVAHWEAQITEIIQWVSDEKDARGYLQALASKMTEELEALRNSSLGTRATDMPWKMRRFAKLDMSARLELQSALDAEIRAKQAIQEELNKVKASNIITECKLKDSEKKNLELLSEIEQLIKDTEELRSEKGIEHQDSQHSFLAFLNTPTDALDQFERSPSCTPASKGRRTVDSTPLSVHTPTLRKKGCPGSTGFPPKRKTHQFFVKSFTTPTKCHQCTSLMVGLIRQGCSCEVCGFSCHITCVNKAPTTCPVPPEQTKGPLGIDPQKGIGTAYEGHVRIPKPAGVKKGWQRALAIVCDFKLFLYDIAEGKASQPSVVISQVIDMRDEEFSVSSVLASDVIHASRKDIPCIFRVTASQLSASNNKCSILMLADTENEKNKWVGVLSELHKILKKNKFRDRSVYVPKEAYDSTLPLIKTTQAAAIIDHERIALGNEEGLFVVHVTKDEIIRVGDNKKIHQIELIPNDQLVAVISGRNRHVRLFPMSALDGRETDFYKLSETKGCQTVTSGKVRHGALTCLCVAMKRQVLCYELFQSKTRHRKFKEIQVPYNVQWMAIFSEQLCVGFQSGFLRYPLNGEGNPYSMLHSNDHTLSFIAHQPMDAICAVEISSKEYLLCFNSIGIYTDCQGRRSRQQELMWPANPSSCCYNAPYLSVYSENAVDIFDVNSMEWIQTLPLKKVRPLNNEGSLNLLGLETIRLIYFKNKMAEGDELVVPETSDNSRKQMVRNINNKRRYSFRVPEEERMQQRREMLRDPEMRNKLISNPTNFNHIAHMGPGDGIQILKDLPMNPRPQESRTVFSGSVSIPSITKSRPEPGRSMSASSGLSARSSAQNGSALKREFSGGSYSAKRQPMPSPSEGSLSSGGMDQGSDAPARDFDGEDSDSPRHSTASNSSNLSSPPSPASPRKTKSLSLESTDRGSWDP
T10 sequence (Q6IQ55 whole entry): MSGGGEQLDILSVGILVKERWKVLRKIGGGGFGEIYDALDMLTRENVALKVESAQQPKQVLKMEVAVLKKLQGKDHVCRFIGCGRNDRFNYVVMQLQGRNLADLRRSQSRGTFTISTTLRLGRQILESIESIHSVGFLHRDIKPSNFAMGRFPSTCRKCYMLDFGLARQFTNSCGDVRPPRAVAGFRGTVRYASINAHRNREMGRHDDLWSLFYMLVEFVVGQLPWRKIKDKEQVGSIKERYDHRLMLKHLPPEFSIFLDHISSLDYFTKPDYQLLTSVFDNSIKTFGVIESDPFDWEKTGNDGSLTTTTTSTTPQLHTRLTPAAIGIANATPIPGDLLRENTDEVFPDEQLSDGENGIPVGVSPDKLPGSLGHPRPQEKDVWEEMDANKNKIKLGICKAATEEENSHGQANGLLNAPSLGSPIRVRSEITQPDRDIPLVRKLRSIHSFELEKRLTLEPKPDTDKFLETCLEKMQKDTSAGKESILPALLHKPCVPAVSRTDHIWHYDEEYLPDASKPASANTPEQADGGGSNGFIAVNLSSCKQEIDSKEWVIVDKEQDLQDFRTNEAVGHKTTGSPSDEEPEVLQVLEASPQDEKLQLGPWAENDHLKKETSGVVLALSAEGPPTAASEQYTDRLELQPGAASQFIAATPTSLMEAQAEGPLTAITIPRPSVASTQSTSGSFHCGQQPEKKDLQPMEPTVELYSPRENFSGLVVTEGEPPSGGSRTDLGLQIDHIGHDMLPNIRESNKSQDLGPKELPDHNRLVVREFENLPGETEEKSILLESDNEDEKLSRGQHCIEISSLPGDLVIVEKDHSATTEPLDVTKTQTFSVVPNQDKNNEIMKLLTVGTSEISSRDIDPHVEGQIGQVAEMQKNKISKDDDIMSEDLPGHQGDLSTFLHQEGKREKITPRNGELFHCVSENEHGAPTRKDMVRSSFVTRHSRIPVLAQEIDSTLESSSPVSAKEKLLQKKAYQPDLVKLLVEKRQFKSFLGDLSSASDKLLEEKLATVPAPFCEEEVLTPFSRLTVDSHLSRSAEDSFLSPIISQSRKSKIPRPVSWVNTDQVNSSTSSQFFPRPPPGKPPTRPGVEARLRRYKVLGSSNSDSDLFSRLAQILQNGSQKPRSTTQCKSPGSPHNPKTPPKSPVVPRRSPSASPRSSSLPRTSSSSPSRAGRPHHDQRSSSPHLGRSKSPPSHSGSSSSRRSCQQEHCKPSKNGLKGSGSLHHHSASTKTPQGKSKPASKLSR
T4 sequence (Q9NYV4 whole entry): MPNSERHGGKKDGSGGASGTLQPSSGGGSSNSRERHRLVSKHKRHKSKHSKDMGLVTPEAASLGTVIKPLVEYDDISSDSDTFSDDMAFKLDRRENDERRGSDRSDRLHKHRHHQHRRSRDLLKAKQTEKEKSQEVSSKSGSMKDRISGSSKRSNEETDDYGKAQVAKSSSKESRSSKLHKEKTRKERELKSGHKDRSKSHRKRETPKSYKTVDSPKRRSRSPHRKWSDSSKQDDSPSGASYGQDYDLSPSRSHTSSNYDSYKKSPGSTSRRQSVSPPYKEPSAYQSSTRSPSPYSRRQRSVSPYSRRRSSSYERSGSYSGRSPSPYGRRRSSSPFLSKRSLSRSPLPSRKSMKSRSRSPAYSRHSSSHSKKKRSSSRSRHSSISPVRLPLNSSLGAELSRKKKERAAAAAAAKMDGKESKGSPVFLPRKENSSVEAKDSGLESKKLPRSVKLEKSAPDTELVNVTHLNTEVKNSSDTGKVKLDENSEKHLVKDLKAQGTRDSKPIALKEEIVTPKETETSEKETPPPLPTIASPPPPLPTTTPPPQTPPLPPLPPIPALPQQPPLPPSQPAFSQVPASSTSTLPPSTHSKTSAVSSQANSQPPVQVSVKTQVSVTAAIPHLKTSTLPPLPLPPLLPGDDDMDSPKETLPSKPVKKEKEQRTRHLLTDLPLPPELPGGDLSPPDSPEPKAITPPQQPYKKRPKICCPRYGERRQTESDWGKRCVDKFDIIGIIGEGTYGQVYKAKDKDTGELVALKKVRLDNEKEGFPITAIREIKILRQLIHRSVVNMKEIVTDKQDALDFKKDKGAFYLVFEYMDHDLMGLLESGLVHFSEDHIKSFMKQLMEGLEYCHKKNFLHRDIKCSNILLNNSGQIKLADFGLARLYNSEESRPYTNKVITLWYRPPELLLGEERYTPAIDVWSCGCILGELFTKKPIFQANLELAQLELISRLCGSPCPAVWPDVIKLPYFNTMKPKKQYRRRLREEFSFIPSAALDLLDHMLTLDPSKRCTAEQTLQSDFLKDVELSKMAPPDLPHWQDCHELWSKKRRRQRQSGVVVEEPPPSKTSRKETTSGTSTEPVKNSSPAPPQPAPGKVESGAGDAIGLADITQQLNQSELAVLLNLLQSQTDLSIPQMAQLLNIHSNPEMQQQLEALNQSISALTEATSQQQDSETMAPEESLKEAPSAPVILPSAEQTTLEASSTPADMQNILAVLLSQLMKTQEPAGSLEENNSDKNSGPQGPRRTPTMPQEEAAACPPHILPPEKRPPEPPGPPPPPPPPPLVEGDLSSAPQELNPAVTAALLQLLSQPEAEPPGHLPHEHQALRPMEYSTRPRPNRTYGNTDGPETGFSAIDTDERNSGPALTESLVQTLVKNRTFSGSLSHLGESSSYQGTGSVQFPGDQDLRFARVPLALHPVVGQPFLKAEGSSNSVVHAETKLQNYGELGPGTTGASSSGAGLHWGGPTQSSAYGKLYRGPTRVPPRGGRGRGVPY
T4 sequence (O75909 whole entry partner): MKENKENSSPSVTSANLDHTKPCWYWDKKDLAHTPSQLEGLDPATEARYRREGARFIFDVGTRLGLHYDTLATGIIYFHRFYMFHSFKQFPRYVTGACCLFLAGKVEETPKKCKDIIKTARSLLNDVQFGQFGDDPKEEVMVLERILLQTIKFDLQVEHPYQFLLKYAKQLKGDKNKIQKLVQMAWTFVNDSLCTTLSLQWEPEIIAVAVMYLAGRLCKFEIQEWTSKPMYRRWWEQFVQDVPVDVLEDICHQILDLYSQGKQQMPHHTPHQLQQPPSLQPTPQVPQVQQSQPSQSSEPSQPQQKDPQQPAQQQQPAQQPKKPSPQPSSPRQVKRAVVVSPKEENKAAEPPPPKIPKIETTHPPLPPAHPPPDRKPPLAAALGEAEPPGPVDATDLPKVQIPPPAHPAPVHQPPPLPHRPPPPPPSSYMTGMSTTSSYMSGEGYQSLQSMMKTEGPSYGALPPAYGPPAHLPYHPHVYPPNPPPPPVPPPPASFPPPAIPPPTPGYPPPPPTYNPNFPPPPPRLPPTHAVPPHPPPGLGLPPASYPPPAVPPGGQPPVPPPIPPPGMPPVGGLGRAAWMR

In the case of `COc1ccnc2[nH]cc(-c3cc(N)nc(N)c3)c12` [meriolin 16], the residual kinase activity at AuroraC (0.03 µM) is 104 % of control; on AuroraC (0.3 µM), 95 % of control; on CDC42BPA (0.03 µM), 53 % of control; on CDC42BPA (0.3 µM), 7 % of control; on CDK1/CycE1 (0.03 µM), 42 % of control; at CDK1/CycE1 (0.3 µM) it was 8 % of control. The residual kinase activity is recorded as 21 % of control on CDK12/CycK (0.03 µM); 1 % of control at CDK12/CycK (0.3 µM); 105 % of control at DDR2 (0.03 µM); 93 % of control on DDR2 (0.3 µM); 98 % of control on EPHB1 (0.03 µM); 97 % of control on EPHB1 (0.3 µM). The residual kinase activity at NEK6 (0.03 µM) was 107 % of control; at NEK6 (0.3 µM) it was 104 % of control; on PIM3 (0.03 µM), 118 % of control; on PIM3 (0.3 µM), 68 % of control; at S6Kbeta (0.03 µM), 89 % of control; on S6Kbeta (0.3 µM) it was 103 % of control. For the same compound, the residual kinase activity on TTBK2 (0.03 µM) is given as 96 % of control; at TTBK2 (0.3 µM) it was 91 % of control.

As to `c1ccc(CNc2cc(-c3c[nH]c4ncccc34)ccn2)cc1` [meriolin 36], the residual kinase activity on AuroraC (0.3 µM) is recorded as 76 % of control; on AuroraC (3 µM), 41 % of control; on CDC42BPA (0.3 µM) it was 1 % of control; on CDC42BPA (3 µM), 1 % of control; at CDK1/CycE1 (0.3 µM), 2 % of control; on CDK1/CycE1 (3 µM) it was 0 % of control. For the same compound, the residual kinase activity on CDK12/CycK (0.3 µM) is 1 % of control; on CDK12/CycK (3 µM), 2 % of control; at DDR2 (0.3 µM), 59 % of control; at DDR2 (3 µM), 17 % of control; on EPHB1 (0.3 µM), 124 % of control; on EPHB1 (3 µM), 79 % of control. The residual kinase activity was 112 % of control on NEK6 (0.3 µM); 108 % of control at NEK6 (3 µM); 85 % of control on PIM3 (0.3 µM); 46 % of control on PIM3 (3 µM); 87 % of control on S6Kbeta (0.3 µM); 67 % of control on S6Kbeta (3 µM). Further, the residual kinase activity at TTBK2 (0.3 µM) is recorded as 93 % of control; at TTBK2 (3 µM), 56 % of control.
